Data set [1] has as its system sows. As to the kind of experiment: Sow and litter trial in a commercial swine operation during a PRRSV outbreak. Format: in vivo, pig. As to conditions: sows given oral 1 mg boron per pound BW per day. How it is done:
To test the effect of boron on sows and their litters, a trial was established in a large commercial swine operation during an outbreak of porcine viral reproductive and respiratory disease (PRRSV). Boron was administered orally to a group of 51 sows individually housed in crates at the rate of 1 mg boron per pound BW per day beginning 1 week prior to farrowing and continuing until the piglets were weaned at 14 days of age. […] Boron treatment was supplied as a single daily dosing and was discontinued at weaning. All sows were fed a standard commercial sow diet.

For data set [2], the system named is sows. Nature of the data set: Observation in sows fed 50 ppm supplemental boron in late gestation and early lactation. Conditions: sow diets with 50 ppm supplemental boron.
Procedure: (§2) Sows were fed a standard corn-soy diet. Half of the sows received an oral administration of a boron supplement to provide 1 mg boron per kg body weight.
Data set [3] has as its system sows. As to the kind of experiment: Preliminary pilot study, oral boron supplement to gestating and lactating sows. Conditions: sows given oral 1 mg boron per kg body weight; first 600 pigs, preliminary analysis.
Procedure: as §2
Data set [4] relates to pigs. As to the kind of experiment: 3-NPB with or without supplemental boron in pigs, lameness and joint lesions. As to conditions: for Clinical Lameness Score Normal, count of pigs / Clinical Lameness Score Visible Lameness, count of pigs: 5 pigs.
Procedure: The pigs were evaluated for lameness daily and euthanized on day 13 and the joints and other organs were examined.
For another data set, the system named is Duroc and Yorkshire pigs. Nature of the data set: Boron supplementation and OC-associated lameness in swine (Example 1). Format: in vivo, pig. The method, then:
The basal diet consisted of commercial corn-soy diet containing 10 ppm boron.
Test diet group B was fed a basal diet plus 25 mg/kg boron as sodium borate decahydrate (borax). Test diet group A was fed a basal diet plus 25 mg/kg boron as sodium borate decahydrate (borax) and 250 mg/kg ascorbic acid.
Pigs were weighed at the beginning of the study, 4 weeks later and every 3 weeks until the end of the study. Animals were scored for soundness on a 5-point scale at each weighing. (Five-point scale: 1=no soundness defects; 2=minor soundness issues but still sound enough for retention as breeding animal; 3=not sound enough for retention for breeding but still marketable; 4=unsound, likely to be rejected at slaughter; 5=severely lame, requiring euthanasia for humane reasons.) Grading was done by the caretaker and the investigator at all weighing times. An experienced independent treatment-blind rater also evaluated the soundness of each animal and the ratings he provided were compared with the ratings of the caretaker and investigator by use of Cohen's Kappa test.
The animals were housed in a modern curtain sided barn with deep straw bedding, with ad libitum access to feed and water. Waterers and feeders were on a concrete pad but the remainder of the flooring was deep straw over a ground limestone and sand base. Floor space allowances exceeded the recommendations of the Guide for the Care and Use of Agricultural Animals in Agricultural Research and Teaching, First Revised Edition, 1999. Federation of Animal Science Societies. Savoy, Ill.
The basal diet (no boron supplemented) was analysed and found to contain boron at the rate of 10 ppm which is typical for a corn-soybean meal based diet.
At the end of the study the pigs were transported to a laboratory where they were euthanized and necropsied. […]
At necropsy, samples of liver, heart, kidney, fat, skeletal muscle, proximal tibia, blood, and the rostral snout were retained and frozen at −40° C. prior to chemical analysis. All joints of the axial skeleton were evaluated for the presence of gross lesions of osteochondrosis and graded on a 5 point scale. […]
Mean joint lesion scores, growth rate and soundness scores by treatment and by factors boron and ascorbate were compared using an analysis of variance and t-test as appropriate. Soundness scores were dichotomised into binary categorical variables for lameness (soundness score>2) and for absence of defects (soundness<2), and the binary variables analysed by chi-square and logistic regression.
Tissue specimens stained with H&E were examined microscopically for the presence of lesions of osteochondrosis. […] Each tissue section was scored by a treatment-blind board-certified pathologist.

Data set [5] is classed as in vivo. Conditions: one pig of about 85 pounds kept on boron 50 ppm plus ascorbate 125 ppm. The method, then:
(§1) Boron was added to the diet of sows at 1 mg/kg body weight as boric acid. […] Among a group of 95 piglets the birth to weaning mortality was 2 piglets. The usual mortality for this farm was about 5 to 7%. These piglets remained on boron 50 ppm plus ascorbate 125 ppm. One pig was euthanized and examined at a weight of about 85 pounds. […] All bones of the appendicular skeleton were sectioned on the band saw.

Data set [6] concerns pigs. Conditions: 50 ppm boron as boric acid. The source says: An Iowa farm treated a group of about 100 pigs with 50 ppm boron as boric acid.
Data set [7] has as its system sows. Type of data set: in vivo. How it is done:
as §1

Setting [8] is: boron supplementation 50 ppm together with 3-NPB 1 gram daily × 10 days.
Setting [9] is: boron supplementation 50 ppm, 3-NPB none.
The mark [10] stands for this setting: 50 ppm added B in diet, 28 days, 12 pens.
[11] abbreviates: supplemental boron 50 mg/kg vs 0, p<0.05.

“Also recorded” adds a separate entry of the source.

These results are taken from patent US20090214500A1, “PREVENTION AND TREATMENT OF OSTEOCHONDROSIS IN ANIMALS AND HUMANS” (U.S. Borax Inc., priority 2005, published 2009).

Turning to `[B]` [Boron], in the data set on sows [1], the “effect on litter size at birth” value was “no effects”; the “effect on piglet birth weight” value is recorded as “no effects”; the “likelihood to conceive relative to control sows” value was 1.2 times; the “return to estrus, average days quicker than control sows” value is reported as 1.6 days. The molecule further registered a piglet mortality in the data set on sows [1] (from 1 week prior to farrowing until weaning) of 15.2%. Further, the “piglet weight at 12 days of age” value in the data set on sows [1] (from 1 week prior to farrowing until weaning at 14 days) is given as 9.01 lbs. For the same molecule, in the data set with sows [2], the “piglet quality as assessed by uniformity, growth, and general thrift” value is listed as “improved”; the pre-weaning piglet mortality result is on record as “reduced”. For the same molecule, in the data set with sows [3], the “piglet weight at 12 days of age” value is on record as 8.5 pounds and the pre-weaning mortality amounted to 16%. In addition, in the data set with pigs [4] (setting [8]), the “Clinical Lameness Score Normal, count of pigs” value is 4 and the “Clinical Lameness Score Visible Lameness, count of pigs” value was 1. For the same molecule, in the data set on pigs [4] (setting [9]), the “Clinical Lameness Score Normal, count of pigs” value is reported as 5 and the “Clinical Lameness Score Visible Lameness, count of pigs” value worked out at 0. Further, in the data set with pigs [4] (chi-square analysis), the “effect of supplemental boron in preventing the lameness induced by 3-NPB” value was “significant effect; also recorded: could be prevented”. In addition, the “pigs that developed lameness” value with pigs [4] (supplemental boron 50 ppm when 3-NPB was provided) is reported as “one in 5”. In the data set with pigs [4] (supplemental boron, no 3-NPB), the “prevalence and severity of osteochondrosis lesions in shoulder, stifle, hock and elbow joints” value was “lowest prevalence of lesions and the lowest severity”. In addition, the “joint health compared with basal diet with no supplemental boron (FIG. 1)” value in the data set on Duroc and Yorkshire pigs (basal diet plus 25 mg/kg boron as sodium borate decahydrate (borax), with or without 250 mg/kg ascorbic acid) is on record as “healthier joints”. Besides, in the data set on Duroc and Yorkshire pigs (growing swine, 25 mg/kg boron as borax in feed), the “incidence of osteochondrosis-associated lameness” value is recorded as “effective in reduction of the incidence of osteochondrosis-associated lameness”. Further, the “occurrence of osteochondrosis (OC)” value in the data set with Duroc and Yorkshire pigs (pigs, supplemental boron 25 ppm to 50 ppm in feed, FIGS. 1, 3 and 4) is reported as “reduction in the occurrence of osteochondrosis; also recorded: significant reduction in the occurrence of OC”. For the same molecule, the “soundness scores / lameness associated with early rapid growth (FIG. 3)” value in the data set with Duroc and Yorkshire pigs (rapidly growing swine, 25 mg/kg boron as borax in feed, 25 mg/kg) is “useful in cartilage protection and prevention of lameness; also recorded: reduction of soundness scores associated with early growth”. Besides, in [5], the “bone mineralization at necropsy” value is given as “excellent mineralization” and the “joint abnormalities at necropsy” value is “No abnormalities were observed in any of the joints”. In the data set with crossbred pigs (setting [10]), the “Average daily gain (grams per day)” value is 549 grams per day, the “Avg. daily feed intake” value came to 1270 and the “Feed Conversion Ratio (feed/gain)” value is reported as 2.32 feed/gain. Also, the “reduction of phosphorus excretion per unit of production” value in the data set on crossbred pigs (boron added to the diet, compared with no added boron) came out at 15%. Besides, in the data set with crossbred pigs (setting [11]), the “effect on average daily gain” value is listed as “increased”, the “effect on fecal phosphorus excretion per unit of growth” value is “reduced”, the “effect on feed conversion ratio” value is listed as “improved” and the “effect on phosphorus digestibility” value was “improved”. In addition, the “effect on daily feed intake” value in the data set on crossbred pigs (supplemental boron 50 mg/kg vs 0, p>0.20) is on record as “not significantly modified”.

On to `OB(O)O` [boric acid], for which the growth rate result in the data set on pigs [6] was “excellent growth rate”. Further, in the data set with pigs [6] (estimated previous rate about 25 to 30%), the “lameness/unsoundness rate in the test group” value was “zero”. In the data set with pigs [6] (about 100 pigs), the “pigs developing signs of lameness or unsoundness” value is “None”. Moreover, the “birth to weaning mortality” value in the data set on sows [7] (pig, in vivo) is on record as 2 piglets. Also, in the data set with sows [7] (sows, boron 1 mg/kg body weight as boric acid in diet), the “outcome of three noticeably and seriously lame sows” value was “became perfectly sound”.
